# Strand notation (5' to 3'): a small letter for the sugar, then the base; units joined by * are phosphorothioate-linked, units joined directly phosphodiester-linked; [ ] holds rarer units or linkages, { } end groups; capitals alone tell only the bases. k = constrained ethyl (cEt); [5mC] = 5-methylcytosine; d = 2'-deoxy (DNA)
# Legend:
# Type in all cases: cell-based, human
# [1] = test system: Yap1 mRNA; assay: Yap1 mRNA in SNU-1214 cells, RNA analysis (Example 46); settings: free uptake, approximately 48 hours
# Experimental: Modified oligonucleotides described in the studies above were tested at various doses in laryngeal squamous cell carcinoma cell line […]. A control oligonucleotide 792169, described herein above, was also tested.
# (§1) Cultured SNU-1214 cells at a density of 5000 cells per well were treated using free uptake with modified oligonucleotides diluted to concentrations described in the tables below. After approximately 48 hours, Yap1 mRNA levels were measured as previously described using the Human Yap1 primer-probe set RTS4814. Yap1 mRNA levels were normalized to actin-beta content, as measured by primer probe set RTS5002. Results are presented in the tables below as percent control of the amount of Yap1 mRNA relative to untreated control cells (% UTC).
# [2] = test system: SCC-25 cells; assay: Cell proliferation assay in SCC-25 cells, CellTiter-Glo (Example 42); settings: free uptake, approximately 144 hours
# Experimental: (§2) Modified oligonucleotides described in the studies above were tested at various doses in tongue squamous cell carcinoma cell line SCC-25. A control oligonucleotide 792169, described herein above, was also tested.
# Cultured SCC-25 cells at a density of 1000 cells/well were treated using free uptake with modified oligonucleotides diluted to concentrations described in the tables below. After approximately 144 hours, cell proliferation was measured using the luminescent cell viability CellTiter-Glo® 2.0 Assay (Promega). Results are presented in the tables below as percent control of the amount of luminescence in samples treated with modified oligonucleotides relative to untreated control cells (% UTC).
# [3] = test system: Yap1 mRNA; assay: Yap1 mRNA in SCC-25 cells, RNA analysis (Example 42); settings: free uptake, approximately 48 hours
# Experimental: as §2
# as §1, with “SCC-25” for “SNU-1214”
# [4] = test system: Yap1 mRNA; assay: Yap1 mRNA in NCI H747 cells, RNA analysis (Example 31); settings: free uptake, approximately 48 hours
# Experimental: Modified oligonucleotides described in the studies above were tested at various doses in colorectal adenocarcinoma cell line NCI H747. A control oligonucleotide 792169 was also tested.
# as §1, with “NCI H747” for “SNU-1214”, “10,000” for “5000”
# [5] = test system: Yap1 mRNA; assay: Yap1 mRNA in SCC-4 cells, RNA analysis (Example 39); settings: free uptake, approximately 48 hours
# Experimental: Modified oligonucleotides described in the studies above were tested at various doses in tongue squamous cell carcinoma cell line SCC 4. A control oligonucleotide 792169, described herein above, was also tested.
# as §1, with “SCC-4” for “SNU-1214”
# [6] = test system: Yap1 mRNA; assay: Yap1 mRNA in BICR56 cells, RNA analysis (Example 33); settings: free uptake, approximately 48 hours
# Experimental: Modified oligonucleotides described in the studies above were tested at various doses in squamous cell carcinoma adherent keratinocyte cell line BICR56. A control oligonucleotide 792169 was also tested.
# as §1, with “BICR56” for “SNU-1214”
# [7] = test system: Yap1 mRNA; assay: Yap1 mRNA in SCC-15 cells, RNA analysis (Example 41); settings: free uptake, approximately 48 hours
# Experimental: Modified oligonucleotides described in the studies above were tested at various doses in tongue squamous cell carcinoma cell line SCC-15. A control oligonucleotide 792169, described herein above, was also tested.
# as §1, with “SCC-15” for “SNU-1214”
# [8] = test system: Yap1 mRNA; assay: Yap1 mRNA in Detroit-562 cells, RNA analysis (Example 38); settings: free uptake, approximately 48 hours
# Experimental: Modified oligonucleotides described in the studies above were tested at various doses in pharynx carcinoma cell line Detroit-562. A control oligonucleotide 792169, described herein above, was also tested.
# as §1, with “Detroit-562” for “SNU-1214”
Substance,human Yap1 mRNA expression ([1]; 0.04 μM),human Yap1 mRNA expression ([1]; 0.2 μM),human Yap1 mRNA expression ([1]; 1 μM),human Yap1 mRNA expression ([1]; 5 μM),"Antiproliferative effect (cell proliferation, luminescence) ([2]; 0.08 μM)","Antiproliferative effect (cell proliferation, luminescence) ([2]; 0.4 μM)","Antiproliferative effect (cell proliferation, luminescence) ([2]; 2 μM)","Antiproliferative effect (cell proliferation, luminescence) ([2]; 10 μM)",human Yap1 mRNA expression ([3]; 0.08 μM),human Yap1 mRNA expression ([3]; 0.4 μM),human Yap1 mRNA expression ([3]; 2 μM),human Yap1 mRNA expression ([3]; 10 μM),human Yap1 mRNA expression ([4]; 0.04 μM),human Yap1 mRNA expression ([4]; 0.2 μM),human Yap1 mRNA expression ([4]; 1 μM),human Yap1 mRNA expression ([4]; 5 μM),human Yap1 mRNA expression ([5]; 0.04 μM),human Yap1 mRNA expression ([5]; 0.2 μM),human Yap1 mRNA expression ([5]; 1 μM),human Yap1 mRNA expression ([5]; 5 μM),other results
715487 (kA*kT*kT*dA*d[5mC]*dT*dT*d[5mC]*dA*dT*dA*dG*d[5mC]*kT*kT*kA) [compound 715487],71 % UTC,36 % UTC,16 % UTC,9 % UTC,82 % UTC,48 % UTC,25 % UTC,15 % UTC,70 % UTC,32 % UTC,16 % UTC,11 % UTC,83 % UTC,70 % UTC,49 % UTC,30 % UTC,81 % UTC,46 % UTC,23 % UTC,13 % UTC,human Yap1 mRNA expression ([6]; 0.04 μM): 68 % UTC; human Yap1 mRNA expression ([6]; 0.2 μM): 28 % UTC; human Yap1 mRNA expression ([6]; 1 μM): 16 % UTC; human Yap1 mRNA expression ([6]; 5 μM): 11 % UTC; human Yap1 mRNA expression ([7]; 0.04 μM): 69 % UTC; human Yap1 mRNA expression ([7]; 0.2 μM): 33 % UTC; human Yap1 mRNA expression ([7]; 1 μM): 12 % UTC; human Yap1 mRNA expression ([7]; 5 μM): 5 % UTC; human Yap1 mRNA expression ([8]; 0.04 μM): 77 % UTC; human Yap1 mRNA expression ([8]; 0.2 μM): 29 % UTC; human Yap1 mRNA expression ([8]; 1 μM): 10 % UTC; human Yap1 mRNA expression ([8]; 5 μM): 5 % UTC
"1198440 (AAGTGTATGTCAGAAG; cEt, 2'-MOE, 5-methylcytosine, phosphorothioate modifications, further chemistry not given here) [compound 1198440]",40 % UTC,11 % UTC,4 % UTC,3 % UTC,56 % UTC,27 % UTC,20 % UTC,16 % UTC,32 % UTC,12 % UTC,8 % UTC,7 % UTC,73 % UTC,53 % UTC,21 % UTC,9 % UTC,63 % UTC,27 % UTC,11 % UTC,5 % UTC,human Yap1 mRNA expression ([6]; 0.04 μM): 40 % UTC; human Yap1 mRNA expression ([6]; 0.2 μM): 10 % UTC; human Yap1 mRNA expression ([6]; 1 μM): 7 % UTC; human Yap1 mRNA expression ([6]; 5 μM): 7 % UTC; human Yap1 mRNA expression ([7]; 0.04 μM): 39 % UTC; human Yap1 mRNA expression ([7]; 0.2 μM): 10 % UTC; human Yap1 mRNA expression ([7]; 1 μM): 4 % UTC; human Yap1 mRNA expression ([7]; 5 μM): 2 % UTC; human Yap1 mRNA expression ([8]; 0.04 μM): 32 % UTC; human Yap1 mRNA expression ([8]; 0.2 μM): 8 % UTC; human Yap1 mRNA expression ([8]; 1 μM): 3 % UTC; human Yap1 mRNA expression ([8]; 5 μM): 2 % UTC
"CGCCGATAAGGTACAC (cEt gapmer, phosphorothioate backbone, further chemistry not given here) [ION 792169, reference compound]",97 % UTC,104 % UTC,106 % UTC,109 % UTC,97 % UTC,101 % UTC,96 % UTC,92 % UTC,87 % UTC,87 % UTC,89 % UTC,86 % UTC,94 % UTC,83 % UTC,87 % UTC,100 % UTC,92 % UTC,106 % UTC,105 % UTC,104 % UTC,human Yap1 mRNA expression ([6]; 0.04 μM): 99 % UTC; human Yap1 mRNA expression ([6]; 0.2 μM): 92 % UTC; human Yap1 mRNA expression ([6]; 1 μM): 85 % UTC; human Yap1 mRNA expression ([6]; 5 μM): 97 % UTC; human Yap1 mRNA expression ([7]; 0.04 μM): 91 % UTC; human Yap1 mRNA expression ([7]; 0.2 μM): 100 % UTC; human Yap1 mRNA expression ([7]; 1 μM): 102 % UTC; human Yap1 mRNA expression ([7]; 5 μM): 105 % UTC; human Yap1 mRNA expression ([8]; 0.04 μM): 102 % UTC; human Yap1 mRNA expression ([8]; 0.2 μM): 102 % UTC; human Yap1 mRNA expression ([8]; 1 μM): 94 % UTC; human Yap1 mRNA expression ([8]; 5 μM): 99 % UTC
